Values joined by “and” are separate entries in the source; they are usually repeats but may differ in a detail not shown here. Equal entries are not always repeated. Where two headings read alike, the source gives them in different places.
What was measured:
HCT 116 cells [1] = assay: Cytotoxicity assay, HCT 116 colon cancer cells; type: cell-based, human; conditions: for inhibition at 10 µM / inhibition at 100 µM / IC50: Homo sapiens, HCT-116, 48 h; for inhibition at 10 µM / inhibition at 100 µM: read-out: percentage inhibition of HCT 116 cells; for SI (selectivity index): IC50 CRL 1790 / IC50 HCT 116
Description: (§1) Evaluation of the cytotoxic properties of the compounds presented in Table 1, Table 2, Table 3 and Table 4 was undertaken using the procedure outlined in [7]. In brief, the HCT 116 cells were obtained from the ATCC and cultured in McCoy’s 5A medium. The CRL 1790 cells were obtained from the ATCC and cultured in Minimum Essential Medium. The MCF-7 and MDA-MBA-231 cells were obtained from the Saskatchewan Cancer Agency and cultured in DMEM. In each assay the culture medium was supplemented with 10% fetal bovine serum and 1% penicillin–streptomycin antibiotics. The time of the bioassays was 48 h, unless indicated otherwise. All determinations were carried out in triplicate on three different occasions.

MDA-MB-231 cells = assay: Cytotoxicity assay, MDA-MB-231 breast cancer cells; type: cell-based, human; conditions: for inhibition at 10 µM / inhibition at 100 µM / IC50: Homo sapiens, MDA-MB-231, 48 h; for inhibition at 10 µM / inhibition at 100 µM: read-out: percentage inhibition of MDA-MB-231 cells; for IC50 / SI (selectivity index): Table 2; for IC50: read-out: Neoplastic Cells IC50, MDA-MB-231; for SI (selectivity index): IC50 CRL 1790 / IC50 MDA-MB-231
Description: as §1

MCF-7 cells = assay: Cytotoxicity assay, MCF-7 breast cancer cells; type: cell-based, human; conditions: for inhibition at 10 µM / inhibition at 100 µM / IC50: Homo sapiens, MCF7, 48 h; for inhibition at 10 µM / inhibition at 100 µM: read-out: percentage inhibition of MCF-7 cells; for IC50 / SI (selectivity index): Table 2; for IC50: read-out: Neoplastic Cells IC50, MCF-7; for SI (selectivity index): IC50 CRL 1790 / IC50 MCF-7
Description: as §1

CRL 1790 cells = assay: Cytotoxicity assay, non-malignant CRL 1790 colon cells; type: cell-based
Description: as §1

HCT 116 cells [2] = assay: Chemosensitization of HCT 116 cells: 1m for 24 h, then 2a or 5-FU for a further 24 h; type: cell-based, human; conditions: for Reduction in Live Cells % 2a (24 h): DMSO figure minus compound figure
Description: as §1
The next phase of the investigation was to determine whether a representative compound in series 1 chemosensitizes HCT 116 cells to a 3,5-bis(benzylidene)-4-piperidone 2a. […] The colon cancer cells were incubated for 24 h with 1m, and then 2a was added and the incubation was continued for a further 24 h. Different concentrations of both 1m and 2a were employed, and the results are presented as entries 1–12 in Table 3. In addition, the effects of each of 1m, 2a, and 5-FU on HCT 116 cells (which are necessary for the evaluation of whether chemosensitivity occurs) were recorded, and are presented as entries 13–20 in Table 3.
The concentration of 1m in combination 4 is 5 µM, which after 48 h causes a percentage reduction of live cells to 86% (DMSO figure after 48 h, line 20) minus 75% (48 h, line 13), or 11%.
The concentration of 2a in combination 4 is 0.2 µM. This combination leads to a reduction of the percentage of live cells to 91% (DMSO figure after 24 h, line 20) minus 69%, or 22%.
The percentage reduction in live cells caused by a combination of 1m (5 µM) and 2a (0.2 µM), in the absence of chemosensitization, is 11% plus 22%, or 33%.
However, the percentage reduction in cells as indicated on line 4 is 86% (DMSO figure after 48 h) minus 12% (line 4, 48 h figure), or 74%.

[3] = Table 4, read-out: IC50 HCT 116
[4] = Homo sapiens, 48 h, Table 4, read-out: IC50 CRL 1790
[5] = Table 2, read-out: Neoplastic Cells IC50, HCT 116

| Structure (SMILES) | melting point | inhibition at 10 µM (HCT 116 cells [1]) | inhibition at 100 µM (HCT 116 cells [1]) | inhibition at 10 µM (MDA-MB-231 cells) | inhibition at 100 µM (MDA-MB-231 cells) | inhibition at 10 µM (MCF-7 cells) | inhibition at 100 µM (MCF-7 cells) | IC50 (HCT 116 cells [1]; [3]) | SI (selectivity index) (HCT 116 cells [1]; Table 4) | IC50 (CRL 1790 cells; [4]) | other results |
| --- | --- | --- | --- | --- | --- | --- | --- | --- | --- | --- | --- |
| C=CC(=O)NNC(=O)c1ccccc1Cl [1e, N^2-Acryloyl-2-chlorobenzohydrazide] | 165 to 167 °C | 4.3 ± 1.38% | 75.7 ± 1.65% | -7.15 ± 2.29% | 91.9 ± 4.53% | 8.66 ± 1.81% | 75.8 ± 2.76% | – | – | – | – |
| O=C1C(=Cc2ccccc2)CNCC1=Cc1ccccc1 [2a, 3,5-bis(benzylidene)-4-piperidone] | – | – | – | – | – | – | – | 0.37 ± 0.06 µM | 36.4 | 13.5 ± 1.99 µM | Reduction in Live Cells % 2a (24 h) (HCT 116 cells [2]; 2a 0.1 µM alone, 24 h): 8%; Reduction in Live Cells % 2a (24 h) (HCT 116 cells [2]; 2a 0.2 µM alone, 24 h): 22%; Reduction in Live Cells % 2a (24 h) (HCT 116 cells [2]; 2a 0.4 µM alone, 24 h): 43%; Live Cells % (HCT 116 cells [2]; entry 16: 2a 0.1 µM alone, 24 h): 83 ± 2.28%; Live Cells % (HCT 116 cells [2]; entry 16: 2a 0.1 µM alone, 48 h): 78 ± 2.12%; Live Cells % (HCT 116 cells [2]; entry 17: 2a 0.2 µM alone, 24 h): 69% and 69 ± 1.38%; Live Cells % (HCT 116 cells [2]; entry 17: 2a 0.2 µM alone, 48 h): 52 ± 1.15%; Live Cells % (HCT 116 cells [2]; entry 18: 2a 0.4 µM alone, 24 h): 48 ± 1.20%; Live Cells % (HCT 116 cells [2]; entry 18: 2a 0.4 µM alone, 48 h): 32 ± 1.50% |
| C=CC(=O)NNC(=O)c1cccc(Cl)c1 [1f, N^2-Acryloyl-3-chlorobenzohydrazide] | 155 to 158 °C | 13.5 ± 1.79% | 95.7 ± 1.71% | 15.6 ± 3.14% | 98.7 ± 0.92% | -15.5 ± 3.38% | 85.9 ± 2.7% | – | – | – | – |
| N[C@@H](Cc1ccc(N(CCCl)CCCl)cc1)C(=O)O [Melphalan, reference compound] | – | 33.9 ± 1.81% | 98.7 ± 1.12% | 28.6 ± 2.48% | > 100% | > 100% | > 100% | 33.2 ± 1.7 µM | >3.02 | – | IC50 (HCT 116 cells [1]; [5]): 30.7 ± 2.73 µM; SI (selectivity index) (HCT 116 cells [1]; Table 2): >3.25; IC50 (MDA-MB-231 cells): 52.9 ± 2.32 µM; SI (selectivity index) (MDA-MB-231 cells): >1.90; IC50 (CRL 1790 cells; Homo sapiens; Table 2; 48 h; read-out: Non-Malignant CRL 1790 Cells IC50): > 100 µM; IC50 (CRL 1790 cells; Homo sapiens; Table 4; 48 h; read-out: IC50 CRL 1790): > 100 µM; IC50 (MCF-7 cells): 12 ± 1.43 µM; SI (selectivity index) (MCF-7 cells): >8.32 |
| O=c1[nH]cc(F)c(=O)[nH]1 [5-FU, 5-fluorouracil, reference compound] | – | 84.7 ± 2.53% | 94.1 ± 0.96% | 17.4 ± 2.97% | > 100% | 91.2 ± 3.03% | 99.3 ± 2.87% | 4.11 ± 0.22 µM | 2.64 | 10.8 ± 1.64 µM | IC50 (HCT 116 cells [1]; [5]): 3.77 ± 0.48 µM; SI (selectivity index) (HCT 116 cells [1]; Table 2): 2.92; IC50 (MDA-MB-231 cells): 15.9 ± 1.65 µM; SI (selectivity index) (MDA-MB-231 cells): 0.68; IC50 (CRL 1790 cells; Homo sapiens, 48 h, Table 2, read-out: Non-Malignant CRL 1790 Cells IC50): 10.8 ± 1.64 µM; IC50 (MCF-7 cells): 2 ± 0.25 µM; SI (selectivity index) (MCF-7 cells): 5.42; Reduction in Live Cells % 2a (24 h) (HCT 116 cells [2]; 5-FU 3 µM alone, 24 h): 13%; Live Cells % (HCT 116 cells [2]; entry 19: 5-FU 3 µM alone, 24 h): 78 ± 2.44%; Live Cells % (HCT 116 cells [2]; entry 19: 5-FU 3 µM alone, 48 h): 55 ± 1.37% |

Second part, led by results:

| melting point | Structure (SMILES) | inhibition at 10 µM (HCT 116 cells [1]) | inhibition at 100 µM (HCT 116 cells [1]) | inhibition at 10 µM (MDA-MB-231 cells) | inhibition at 100 µM (MDA-MB-231 cells) | inhibition at 10 µM (MCF-7 cells) | inhibition at 100 µM (MCF-7 cells) | IC50 (HCT 116 cells [1]; [3]) | SI (selectivity index) (HCT 116 cells [1]; Table 4) | IC50 (CRL 1790 cells; [4]) | other results |
| --- | --- | --- | --- | --- | --- | --- | --- | --- | --- | --- | --- |
| 172 to 175 °C | C=CC(=O)NNC(=O)c1ccc(Cl)c(Cl)c1 [1g, N^2-Acryloyl-3,4-dichlorobenzohydrazide] | 6.72 ± 1.97% | > 100% | -19.4 ± 3.01% | 139.8 ± 1.03% | -50.5 ± 3.27% | 97.4 ± 2.6% | – | – | – | – |
| 175 to 178 °C | COc1ccc(C=C2CN(CCC(=O)NNC(=O)c3ccc(OC)c(OC)c3)CC(=Cc3ccc(OC)cc3)C2=O)cc1 [7f, 3,5-Bis(4-methoxybenzylidene)-1-[3-(3,4-dimethoxyphenylcarbonylaminoamino)-3-oxo-1-propyl]-4-piperidone] | – | – | – | – | – | – | 2.87 ± 0.23 µM | 3.86 | 11.1 ± 0.52 µM | – |
| 171 to 172 °C | CC(=O)NNC(=O)c1ccccc1 [6b, N^2-Acetylbenzohydrazide] | -4.89 ± 2.52% | 13.6 ± 3.03% | -22.6 ± 2.65% | -15.3 ± 3.46% | -93.8 ± 4.15% | -58.7 ± 3.24% | – | – | – | – |
